PMC9966370, “Biological Evaluation and In Vitro Characterization of ADME Profile of In-House Pyrazolo[3,4-d]pyrimidines as Dual Tyrosine Kinase Inhibitors Active against Glioblastoma Multiforme” (Pharmaceutics, 2023)
Where two headings read alike, the source gives them in different places. Marks after values point to notes of the source that are not given here.

Key:
[1] = tested on: U-87 GBM cell line; assay: antiproliferative activity, MTT assay, U-87; format: cell-based; settings: Homo sapiens, 72 h treatment
Description: (§1) Cell-based assays were performed using four GBM cell lines, i.e., U-87, LN18, LN229, and DBTRG, cultured in Dulbecco’s modified Eagle medium (DMEM) (U-87, LN18, and LN229) or Roswell Park Memorial Institute medium (RPMI 1640) (DBTRG). Both media were implemented with 10% fetal bovine serum (FBS), 2 mM L-glutamine, and 10,000 units/mL penicillin/streptomycin at 37 °C in a 5% CO2 atmosphere. […] The final concentration of DMSO used never exceeded 0.5% v/v, and appropriate controls were always performed in each assay. […] These were cultured in DMEM supplemented with 10% FBS, 2 mM L-glutamine, and 10,000 units/mL penicillin/streptomycin at 37 °C in a 5% CO2 atmosphere. The protocol used to assess the cytotoxic effect on both healthy cell lines was the same described above for the antiproliferative assay. For both the antiproliferative and the cytotoxic assays, 3-(4,5-dimethylthiazol-2-yl)-2,5-diphenyltetrazolium bromide (MTT) was used to assess cell viability as previously described. Briefly, 150 μL of MTT (5 mg/mL in FBS-free culture medium) was added to each well, and the plates incubated for 4 h in a 5% CO2 atmosphere at 37 °C. Afterward, formazan violet crystals were solubilized in 150 μL of isopropanol, and the absorbance was quantified at 570 nm using a Multiskan SkyHigh Microplate Spectrophotometer (ThermoFisher, Waltham, MA, USA). Cell viability was expressed as a percentage of DMSO-treated cells (controls), taken as 100%. […] To support MTT data, cytotoxicity assays was always paralleled by a careful observation of cells under a phase-contrast light microscope, as described in USP 28 (United States Pharmacopeia edition 2005) as an alternative method. This analysis was performed by an expert operator blind to the treatment, and exemplificative photos representing the effects of compound 5 on LN229 and DBTRG cells are reported in Figures S2 and S3 (Supplementary Materials).

[2] = PAMPA, GI permeability; format: in vitro ADME; settings: RT; for GI membrane retention (MR%): 5 h, pH 7.4; for Papp at 5 h, 500 µM: pH 7.4, PAMPA
Description: (§2) UV/LC–MS chromatographic analyses were carried out using an Agilent 1100 LC/MSD VL system (G1946C) purchased from Agilent Technologies (Palo Alto, CA, USA). […] The analysis began with 5% B (t = 0–1 min), increased to 95% (t = 1–10 min), maintained at 95% (t = 10–19 min), and finally returned to 5% […]. The analyses were performed at a flow rate of 0.6 mL/min, UV detection was monitored at 254 nm, and spectra were acquired over the scan range of m/z 100–1000 in both positive and negative modes.
(§3) The DMSO stock of each compound was diluted with phosphate buffer (PBS 25 mM, pH 7.4) to a final concentration of 500 µM in order to obtain the “donor”. For GI and BBB permeability, filters were coated with 10 µL of 1% w/v dodecane phosphatidylcholine solution or 5 µL of 10% w/v CHCl3/dodecane brain polar lipid solution. The donor (150 µL) was poured over the artificial membranes on the filter plate. DMSO/PBS (300 µL, 1:1 v/v) was then added to the acceptor wells. After assembling the sandwich plates, the experiments were run for 5 h at room temperature (RT). Lastly, the amount of compound passed though the artificial membranes was determined using the UV/LC–MS method described above. Apparent permeability (Papp) and membrane retention (MR%) were determined as previously described.

[3] = PAMPA, BBB permeability; format: in vitro ADME; settings: RT; for BBB membrane retention (MR%): 5 h, pH 7.4; for Papp at 5 h, 500 µM: pH 7.4, PAMPA
Description: as §2, §3

[4] = tested on: LN229 GBM cell line; assay: antiproliferative activity, MTT assay, LN229; format: cell-based; settings: Homo sapiens, LN-229, 72 h treatment
Description: as §1

[5] = tested on: LN18 GBM cell line; assay: antiproliferative activity, MTT assay, LN18; format: cell-based; settings: Homo sapiens, LN-18, 72 h treatment
Description: as §1

[6] = tested on: DBTRG GBM cell line; assay: antiproliferative activity, MTT assay, DBTRG; format: cell-based; settings: Homo sapiens, 72 h treatment
Description: as §1

[7] = HLM, previously published, cited from earlier work; for Metabolite Formation M1: M1 = M − HCl + O; for Metabolite Formation M3: M3 = M—group bearing NH moiety in R2
[8] = design: method as in PMID 21443205; settings: previously published; cited from earlier work
[9] = metabolic stability assay in human liver microsomes; format: in vitro ADME; settings: HLM 0.2 mg/mL, NADPH, 1 h, 37 °C
Description: as §2
Each DMSO compound solution was incubated for 1 h at 37 °C in the presence of 500 µL of PBS (25 mM, pH 7.4), human liver microsomal (HLM) proteins (0.2 mg/mL), and 10 mM NADPH solution in MgCl2 (48 mM). The reactions were stopped with 1.0 mL of cold ACN. The samples were centrifuged (4000 rpm for 10 min), and the supernatants were collected, dried under N2 flow, and suspended in 100 µL of methanol (MeOH). Parent drugs and metabolites were determined using the previously described HPLC/UV–MS method. The percentage metabolic stability was calculated by comparing the metabolized and unmetabolized compounds.

[10] = target: T1, c-Src (Homo sapiens, UniProt P12931); assay: cell-free enzymatic assay (ADP-Glo), c-Src; format: biochemical
T1 construct: purchased Promega (Madison, WI, USA)
T1 sequence (P12931 whole entry): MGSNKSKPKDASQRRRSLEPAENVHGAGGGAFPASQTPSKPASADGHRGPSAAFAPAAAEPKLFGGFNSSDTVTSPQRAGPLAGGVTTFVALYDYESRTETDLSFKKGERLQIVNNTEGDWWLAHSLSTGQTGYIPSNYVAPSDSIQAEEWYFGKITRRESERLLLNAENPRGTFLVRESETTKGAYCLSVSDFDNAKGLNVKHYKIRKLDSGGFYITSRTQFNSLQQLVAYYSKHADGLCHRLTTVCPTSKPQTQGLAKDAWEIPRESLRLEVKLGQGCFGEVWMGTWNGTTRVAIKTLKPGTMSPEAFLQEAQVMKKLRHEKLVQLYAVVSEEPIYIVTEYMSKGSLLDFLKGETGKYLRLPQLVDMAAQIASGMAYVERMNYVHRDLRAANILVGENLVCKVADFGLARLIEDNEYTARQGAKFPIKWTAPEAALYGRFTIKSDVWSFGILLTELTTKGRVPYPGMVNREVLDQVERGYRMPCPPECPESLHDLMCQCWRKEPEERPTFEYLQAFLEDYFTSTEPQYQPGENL
Description: (§4) The reactions were carried out in accordance with the manufacturer’s instructions, with minor modifications. The experiments were run using all substrates at least twice the concentration of apparent Km. […] All reactions were run out at 30 °C for 10 min with 10–50 ng of enzyme and 10 µL of 10% DMSO. Protein low-binding tubes were used to prevent peptide adsorption onto the plastic surface. To detect kinase activity, the ADP-Glo Kinase Assay (Promega, Madison, WI, USA) was used according to the manufacturer’s protocol. Into white 384-well plates, reactions were stopped for 50 min at RT by adding 10 µL of ADP-Glo Reagent (Promega, Madison, WI, USA). After 30 min, 20 µL of Detection Reagent (Promega, Madison, WI, USA) was added, and the reaction was read using a GloMax Discover microplate reader (Promega, Madison, WI, USA). […] Compounds analyzed were considered to act as ATP-competitive inhibitors.

[11] = target: T2, Abl (Homo sapiens, UniProt P00519); assay: cell-free enzymatic assay (ADP-Glo), Abl; format: biochemical; settings: 30 µM ATP, 50 µM Abltide
T2 construct: purchased Promega (Madison, WI, USA)
T2 sequence (P00519 whole entry): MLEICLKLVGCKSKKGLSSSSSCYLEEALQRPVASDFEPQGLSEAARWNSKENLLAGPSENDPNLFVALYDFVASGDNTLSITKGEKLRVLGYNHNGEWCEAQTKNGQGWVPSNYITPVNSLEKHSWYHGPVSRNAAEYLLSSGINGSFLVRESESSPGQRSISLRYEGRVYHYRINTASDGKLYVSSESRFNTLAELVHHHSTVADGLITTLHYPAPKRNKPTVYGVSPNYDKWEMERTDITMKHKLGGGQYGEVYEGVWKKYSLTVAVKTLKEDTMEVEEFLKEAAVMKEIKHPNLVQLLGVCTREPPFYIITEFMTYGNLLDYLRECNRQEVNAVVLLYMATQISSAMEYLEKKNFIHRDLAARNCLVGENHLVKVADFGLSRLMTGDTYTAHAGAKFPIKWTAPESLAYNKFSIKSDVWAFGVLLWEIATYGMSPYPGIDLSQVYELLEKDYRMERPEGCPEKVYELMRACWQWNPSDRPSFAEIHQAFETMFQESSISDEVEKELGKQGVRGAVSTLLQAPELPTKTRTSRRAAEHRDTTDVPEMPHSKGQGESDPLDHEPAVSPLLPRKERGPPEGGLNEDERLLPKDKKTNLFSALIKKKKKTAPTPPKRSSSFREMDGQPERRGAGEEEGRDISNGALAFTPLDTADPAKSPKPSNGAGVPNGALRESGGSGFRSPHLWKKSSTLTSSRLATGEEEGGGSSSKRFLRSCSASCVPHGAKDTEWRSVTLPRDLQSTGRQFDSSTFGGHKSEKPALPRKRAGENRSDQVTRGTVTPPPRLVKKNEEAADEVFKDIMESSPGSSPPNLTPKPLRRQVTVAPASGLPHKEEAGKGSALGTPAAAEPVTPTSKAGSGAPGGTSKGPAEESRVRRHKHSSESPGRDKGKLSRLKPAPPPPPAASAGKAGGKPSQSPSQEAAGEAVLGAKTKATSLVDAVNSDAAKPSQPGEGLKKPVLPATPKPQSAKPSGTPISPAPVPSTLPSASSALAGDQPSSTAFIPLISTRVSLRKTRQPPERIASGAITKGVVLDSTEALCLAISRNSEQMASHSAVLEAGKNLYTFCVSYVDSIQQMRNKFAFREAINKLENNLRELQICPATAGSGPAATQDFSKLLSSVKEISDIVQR
Description: as §4

[12] = cytotoxicity on nontumoral healthy cells, MTT assay, FIBRO 2-93; format: cell-based, human; settings: human, FIBRO 2-93 healthy fibroblasts, 72 h treatment, MTT
Description: (§5) The protocol used to assess the cytotoxic effect on both healthy cell lines was the same described above for the antiproliferative assay. For both the antiproliferative and the cytotoxic assays, 3-(4,5-dimethylthiazol-2-yl)-2,5-diphenyltetrazolium bromide (MTT) was used to assess cell viability as previously described [20]. […] Afterward, formazan violet crystals were solubilized in 150 μL of isopropanol, and the absorbance was quantified at 570 nm using a Multiskan SkyHigh Microplate Spectrophotometer (ThermoFisher, Waltham, MA, USA). Cell viability was expressed as a percentage of DMSO-treated cells (controls), taken as 100%.

[13] = tested on: fibroblasts FIBRO 2-93; assay: as above; format: cell-based, human; settings: for CC50: 72 h treatment, MTT; for CC50 times higher than IC50: CC50 on FIBRO 2-93 and HaCaT vs IC50 on GBM cells
Description: as §5

[14] = tested on: LN229 cells; assay: cell-cycle analysis by flow cytometry, LN229; format: cell-based, human; settings: LN229, 72 h at IC50 (6.9 µM)
[15] = tested on: LN229 cells; assay: reversible/irreversible effect on LN229 cell death (MTT); format: cell-based, human; settings: for further decrease in cell viability: 24 h treatment followed by 48 h without compound, vs 24 h
[16] = tested on: DBTRG cells; assay: cell-cycle analysis by flow cytometry, DBTRG; format: cell-based, human; settings: 72 h at IC50 (8.5 µM)
[17] = tested on: LN229 cells; assay: T-scratch assay (cell migration); format: cell-based, human; settings: for wound closure: after 72 h; for wound left opened: all timepoints (24–48–72 h)
Description: The scratched area was observed and photographed at 10× magnification after 0–24–48–72 h (see Figure S5, Supplementary Materials).

[18] = cytotoxicity on nontumoral healthy cells, MTT assay, HaCaT; format: cell-based, human; settings: human, HaCaT keratinocytes, 72 h treatment
Description: as §5

[19] = tested on: keratinocytes HaCaT; assay: as above; format: cell-based, human; settings: 72 h treatment
Description: as §5

[20] = tested on: U-87 GBM cell line; settings: previously published; cited from earlier work
[21] = 100 µM ATP, 500 µM Src-peptide, read-out: c-Src Ki

Row | Compound | melting point [°C] | IC50 [1] [µM] | GI membrane retention (MR%) [2] [%] | Papp at 5 h, 500 µM [2] [×10⁻⁶ cm/s] | BBB membrane retention (MR%) [3] [%] | Papp at 5 h, 500 µM [3] [×10⁻⁶ cm/s] | IC50 [4] [µM] | IC50 [5] [µM] | IC50 [6] [µM] | Metabolic Stability [9] [%] | other results
1 | ClC(Cn1ncc2c(NC3CC3)ncnc21)c1ccccc1 (centres unmarked) [Compound 2] | 194 to 195 | > 100 | 34.7 | 6.46 | 55.0 | 4.96 | > 100 | 49.4 ± 2.8 | > 100 | – | –
2 | ClC(Cn1ncc2c(NCc3ccccc3)nc(SCCN3CCOCC3)nc21)c1ccccc1 (centres unmarked) [Compound 9] | – | > 100 | – | – | 6.3 | 2.6 | 58.2 ± 3.4 | 2.9 ± 0.5 | 59.4 ± 3.7 | – | Metabolite Formation M1 [7]: M1 = 5 * %; QP LogS [8]: −5.6 *
3 | Fc1ccccc1CNc1ncnc2c1cnn2CC(Cl)c1ccccc1 (centres unmarked) [Compound 3] | – | 40.2 ± 3.6 | 7.3 | ≥ 10 | 4.8 | ≥ 10 | 29.2 ± 2.6 | 27.5 ± 2.1 | 15.1 ± 2.1 | 80.4 | –
4 | Clc1ccc(C(Cl)Cn2ncc3c(NCCc4ccccc4)ncnc32)cc1 (centres unmarked) [Compound 10] | – | 33.9 ± 2.9 | 17.2 | ≥ 10 | 4.8 | ≥ 10 | 27.9 ± 2.1 | 6.2 ± 1 | 46.5 ± 4.1 | 85.9 | Ki [10]: 0.22 ± 0.03 µM; Ki [11]: 0.31 ± 0.02 µM
5 | Fc1ccc(C(Cl)Cn2ncc3c(NCc4ccccc4)ncnc32)cc1 (centres unmarked) [Compound 5] | 143 to 144 | 6.8 ± 0.3 | 9.2 | ≥ 10 | 5.6 | ≥ 10 | 6.9 ± 0.5 | 10.8 ± 1.4 | 8.5 ± 1.4 | 84.2 | CC50 at 72 h [12]: > 90 µM; CC50 [13]: 91.7 ± 5.3 µM; CC50 times higher than IC50 [13]: 10 times; change in cells in G0/G1 phase vs control [14]: −32.4%; change in cells in sub G0/G1 phase vs control [14]: +32.1%; percentage of cells in the S and G2/M phases vs control [14]: No significant differences; further decrease in cell viability ([15]; 10 µM): ~ −30%; further decrease in cell viability ([15]; 100 µM): ~ −30%; reversibility of cytotoxic effect ([15]; 24 h treatment, 48 h drug-free medium): irreversible cytotoxic effect; change in cells in G2/M phase vs control [16]: +38.1%; change in cells in sub G0/G1 area vs control [16]: +15.6%; wound closure ([17]; 0.25 µM): ~60%; wound closure ([17]; 0.5 µM): ~60%; wound left opened ([17]; 2.5 µM): more than 80%; wound left opened ([17]; 5 µM): more than 80%; CC50 at 72 h [18]: > 90 µM; CC50 [19]: 126 ± 6.4 µM; Ki [10, 21]: 3.14 ± 0.38 µM
6 | Fc1cccc(CNc2ncnc3c2cnn3CCc2ccccc2)c1 [Compound 11] | 113 to 114 | 56.9 ± 3.3 | 6.7 | ≥ 10 | 5.2 | ≥ 10 | 58.4 ± 3 | 34.1 ± 2.9 | 69.2 ± 3.9 | – | –
7 | ClC(Cn1ncc2c(Nc3ccccc3)ncnc21)c1ccc(Br)cc1 (centres unmarked) [Compound 12] | – | – | – | – | – | – | > 100 | > 100 | > 100 | – | Metabolic Stability [7]: ≥ 90%; IC50 [20]: 14 ± 1.9 µM
8 | ClC(Cn1ncc2c(NCc3ccccc3)ncnc21)c1ccccc1 (centres unmarked) [Compound 1] | – | – | – | – | – | – | 3.4 ± 0.8 | 3.6 ± 0.5 | 4.3 ± 0.8 | – | CC50 at 72 h [12]: ~87 µM; CC50 [13]: 86.9 ± 4.2 µM; CC50 times higher than IC50 [13]: 10 times; Metabolite Formation M1 [7]: 14.5%; Metabolite Formation M2 ([7]; M2 = M + OH): < 0.1%; Metabolite Formation M3 [7]: 2.6%; Metabolite Formation M4 ([7]; M4 = M − Cl + OH (−35 + 17)): 4.5%; Metabolic Stability [7]: lower than 80%; CC50 at 72 h [18]: ~87 µM; CC50 [19]: 88.7 ± 5.7 µM; IC50 [20]: 2.9 ± 1.1 µM
9 | Fc1ccc(CNc2ncnc3c2cnn3CC(Cl)c2ccc(Cl)cc2)cc1 (centres unmarked) [Compound 7] | – | 22.7 ± 2.3 | – | – | 4.4 | ≥ 10 | 7.1 ± 1.1 | 3.9 ± 0.6 | 14.6 ± 0.9 | – | CC50 at 72 h [12]: 28.6 ± 3.7 µM; Metabolite Formation M1 [7]: 4%; Metabolite Formation M3 [7]: 2%; CC50 at 72 h [18]: 37.8 ± 4.9 µM; Ki [10, 21]: 0.8 ± 0.09 µM
10 | CSc1nc(NCCc2ccccc2)c2cnn(CC(Cl)c3ccccc3)c2n1 (centres unmarked) [Compound 8] | – | 37.9 ± 3.9 | 42.7 | 3.2 | 18.3 | 5.96 | 26.1 ± 2.8 | 5.9 ± 1.1 | 31.2 ± 2.5 | – | –
11 | Fc1ccc(C(Cl)Cn2ncc3c(NCc4ccccc4F)ncnc32)cc1 (centres unmarked) [Compound 6] | – | 32.4 ± 2.7 | 10.1 | ≥ 10 | 4.4 | ≥ 10 | 33.8 ± 2.3 | 11.7 ± 1.5 | 20.1 ± 1.8 | 69.9 | Ki [10, 21]: 0.07 ± 0.01 µM
12 | Fc1ccc(CNc2ncnc3c2cnn3CC(Cl)c2ccccc2)cc1 (centres unmarked) [Compound 4] | 161 to 162 | 29.8 ± 2.5 | 7.8 | ≥ 10 | 2.1 | ≥ 10 | > 100 | 9 ± 1.2 | 68.5 ± 3.8 | – | –
